This passage reports MIC results from patent publication US20250270246A1, “LINCOSAMIDES AND USES THEREOF” (President and Fellows of Harvard College, priority 2022, published 2025).

Common to all, as to test: MIC by broth microdilution (CLSI)
Type in all cases: cell-based
A general note: Broth dilution looks for growth in wells or tubes with falling amounts of substance.

For assay [1], the system named is A. baumannii ATCC 19606 (HAV#010). The following applies: Acinetobacter baumannii, ATCC19606, 24 h, read-out: MIC A. baumannii ATCC 19606. As to the method:
(§1) Minimum inhibitory concentrations (MICs) were determined by the broth microdilution method following the Clinical and Laboratory Standards Institute (CLSI) guidelines. Test organisms consisted of standard reference strains from the American Type Culture Collection (ATCC; Manassa, VA, USA) and clinical isolates obtained from JMI Laboratories Inc. (North Liberty, IA, USA), Micromyx repository (MMX; Kalamazoo, MI, USA), and Massachusetts Eye and Ear Hospital (Boston, USA). Before the start of the MIC experiment, standard and test compound stock solutions were prepared in dimethyl sulfoxide (DMSO, Aldrich D2650) at a stock concentration of 2,560 μg/mL. The compound concentration range typically employed for each experiment was 64-0.06 μg/mL (2.5% final DMSO concentration). Iboxamycin was used as a comparator in all experiments. All bacterial strains were sub-cultured on blood agar plates (tryptic soy agar with 5% sheep blood, Hardy Diagnostics) and incubated overnight at 35° C. Organisms were suspended in cation-adjusted Mueller-Hinton broth (CaMHB, BD 212322) and optical density was adjusted to 0.5 McFarland standard. Suspensions were further diluted to obtain a final inoculum of 5×10^5 CFU/mL for broth microdilution experiments. The minimum concentration of compound required to inhibit visible bacterial growth after 24 h of incubation was recorded as the MIC in μg/mL. MICs for P. aeruginosa were recorded in cation-adjusted Mueller-Hinton broth which had been pre-treated with Chelex 100 ion exchange resin according to procedures reported in Ito et al. Antimicrob Agents Chemother (2016) 60 (12), 7396-7401.

The subject of assay [2] is E. faecium JMI-990536. The note with it: Enterococcus faecium, JMI990536, 24 h, read-out: MIC E. faecium JMI-990536. On the procedure: as §1
Assay [3] deals with S. aureus Clinical (cfr). The following applies: Staphylococcus aureus, 24 h, read-out: MIC S. aureus Clinical (cfr). As to the method: as §1
The test system of assay [4] is E. faecalis ATCC 29212 (HAV#005). The note with it: Enterococcus faecalis, ATCC29212, 24 h, read-out: MIC E. faecalis ATCC 29212. On the procedure: as §1
Assay [5] relates to S. aureus MMX 3035. The note with it: Staphylococcus aureus, MMX3035, 24 h, read-out: MIC S. aureus MMX 3035. As to the method:
as §1

Assay [6] has as its system E. coli ATCC 25922 (HAV#006). The note with it: Escherichia coli, ATCC25922, 24 h, read-out: MIC E. coli ATCC 25922. On the procedure:
as §1

Assay [7] concerns S. aureus ATCC 29213 (HAV#001). The note with it: Staphylococcus aureus, ATCC29213, 24 h, read-out: MIC S. aureus ATCC 29213. As to the method: as §1
The test system of assay [8] is E. coli lptD mutant. The following applies: Escherichia coli, 24 h, read-out: MIC E. coli lptD mutant, lptD mutant / ΔlptD mutant; CaMHB, 24 h incubation. As to the method: as §1
The subject of assay [9] is K. pneumoniae JMI-991193. The following applies: Klebsiella pneumoniae, JMI991193, 24 h, read-out: MIC K. pneumoniae JMI-991193. On the procedure: as §1
Assay [10] relates to E. coli ΔtolC. The note with it: Escherichia coli, 24 h, read-out: MIC E. coli ΔtolC, ΔtolC; CaMHB, 24 h incubation. On the procedure:
as §1

[11] abbreviates: HAV#010, ATCC 19606, CaMHB, 24 h incubation.
Setting [12] is: JMI-990536, CaMHB, 24 h incubation.
[13] abbreviates: Clinical (cfr), CaMHB, 24 h incubation.
Setting [14] is: HAV#005, ATCC 29212, CaMHB, 24 h incubation.
The mark [15] stands for this setting: MMX 3035, CaMHB, 24 h incubation.
Where [16] appears, read: HAV#006, ATCC 25922, CaMHB, 24 h incubation.
Setting [17] is: HAV#001, ATCC 29213, CaMHB, 24 h incubation.
Setting [18] is: JMI-991193, CaMHB, 24 h incubation.

Each structure is given as a SMILES string. Structures can show the parent of a compound that is named as a salt. Where two headings read alike, the source gives them in different places. Where only a bound is given, the exact number is not on record here.

For the compound `C#C[C@@H]1C/C=C\C[C@@H](NC(=O)[C@H]2NC[C@@H]3C[C@H](CC(C)C)CCO[C@H]32)[C@H]2O[C@H](S1)[C@H](O)[C@@H](O)[C@H]2O` [FSA1607077, (4S,5aS,8S,8aR)—N-((1R,3S,8R,9R,10R,11S,12R,Z)-3-ethynyl-10,11,12-trihydroxy-13-oxa-2-thiabicyclo[7.3.1]tridec-5-en-8-yl)-4-isobutyloctahydro-2H-oxepino[2,3-c]pyrrole-8-carboxamide formate salt], the MIC is 8 mg/L in assay [1]; 2 mg/L in assay [2]; 16 mg/L in assay [3]; at most 0.125 mg/L in [4]; 4 mg/L in assay [5]; 4 mg/L in assay [6]. In addition, the MIC was at most 0.125 mg/L in assay [7], 1 mg/L in assay [8], 16 mg/L in [9] and 1 mg/L in assay [10].

Take `CC(C)C[C@@H]1CCO[C@@H]2[C@H](CN[C@@H]2C(=O)N[C@@H]2C/C=C\C[C@@H](c3c[nH]nn3)S[C@H]3O[C@H]2[C@H](O)[C@H](O)[C@H]3O)C1` [FSA1607090, (4S,5aS,8S,8aR)-4-isobutyl-N-((1R,3S,8R,9R,10R,11S,12R,Z)-10,11,12-trihydroxy-3-(1H-1,2,3-triazol-4-yl)-13-oxa-2-thiabicyclo[7.3.1]tridec-5-en-8-yl) octahydro-2H-oxepino[2,3-c]pyrrole-8-carboxamide formate salt]: the MIC in assay [1] (setting [11]) is above 64 mg/L; in [2] (setting [12]) it was 16 mg/L; in assay [3] (setting [13]), above 64 mg/L; in assay [4] (setting [14]), 32 mg/L; in assay [5] (setting [15]) it was 32 mg/L; in assay [6] (setting [16]), above 64 mg/L. Besides, the MIC was 8 mg/L in [7] (setting [17]), 8 mg/L in assay [8], above 64 mg/L in assay [9] (setting [18]) and 4 mg/L in [10].

For the compound `CC(C)C[C@@H]1CCO[C@@H]2[C@H](CN[C@@H]2C(=O)N[C@@H]2C/C=C/[C@H](O)CS[C@H]3O[C@H]2[C@H](O)[C@H](O)[C@H]3O)C1` [FSA1608009, (4S,5aS,8S,8aR)-4-isobutyl-N-((1R,4S,8R,9R,10R,11S,12R,E)-4,10,11,12-tetrahydroxy-13-oxa-2-thiabicyclo[7.3.1]tridec-5-en-8-yl) octahydro-2H-oxepino[2,3-c]pyrrole-8-carboxamide formate salt], the MIC in [1] (setting [11]), in [2] (setting [12]), in assay [3] (setting [13]), in [4] (setting [14]), in [5] (setting [15]) and in assay [6] (setting [16]) was above 64 mg/L each time. Besides, the MIC in [7] (setting [17]) was 32 mg/L; in [8], above 64 mg/L; in [9] (setting [18]), above 64 mg/L; in [10], above 64 mg/L.

With `CC(C)C[C@@H]1CCO[C@@H]2[C@H](CN[C@@H]2C(=O)N[C@@H]2C/C=C\C[C@@H](c3cn(-c4ccc(F)cc4)nn3)S[C@H]3O[C@H]2[C@H](O)[C@H](O)[C@H]3O)C1` [FSA1608021, (4S,5aS,8S,8aR)—N-((1R,3S,8R,9R,10R,11S,12R,Z)-3-(1-(4-fluorophenyl)-1H-1,2,3-triazol-4-yl)-10,11,12-trihydroxy-13-oxa-2-thiabicyclo[7.3.1]tridec-5-en-8-yl)-4-isobutyloctahydro-2H-oxepino[2,3-c]pyrrole-8-carboxamide formate salt], the MIC in assay [1] came to 4 mg/L; in [2], 0.5 mg/L; in assay [3], 4 mg/L; in assay [4], 0.5 mg/L; in assay [5], 2 mg/L; in assay [6], 1 mg/L. In addition, the MIC was 0.5 mg/L in assay [7], 0.25 mg/L in [8], 4 mg/L in [9] and 1 mg/L in assay [10].

In the case of `CC(C)C[C@@H]1CCO[C@@H]2[C@H](CN[C@@H]2C(=O)N[C@H]2[C@H]3O[C@H](S[C@H](c4cn(-c5cc(F)c(F)cc5F)nn4)C/C=C\[C@H]2C)[C@H](O)[C@@H](O)[C@H]3O)C1` [FSA1609051, (4S,5aS,8S,8aR)-4-isobutyl-N-((1R,3S,7R,8R,9R,10R,11S,12R,Z)-10,11,12-trihydroxy-7-methyl-3-(1-(2,4,5-trifluorophenyl)-1H-1,2,3-triazol-4-yl)-13-oxa-2-thiabicyclo[7.3.1]tridec-5-en-8-yl) octahydro-2H-oxepino[2,3-c]pyrrole-8-carboxamide formate salt], the MIC in [1] (setting [11]) stood at 2 mg/L; in assay [2] (setting [12]) it was 0.5 mg/L; in assay [3] (setting [13]) it was 0.5 mg/L; in assay [4] (setting [14]) it was 0.25 mg/L; in assay [5] (setting [15]), 0.5 mg/L; in assay [6] (setting [16]) it was 4 mg/L. In addition, the MIC in assay [7] (setting [17]) was determined as 0.25 mg/L; in assay [8] it was 0.5 mg/L; in [9] (setting [18]), 8 mg/L; in assay [10], 0.25 mg/L.

For the compound `CC(C)C[C@@H]1CCO[C@@H]2[C@H](CN[C@@H]2C(=O)N[C@H]2[C@H]3O[C@H](S[C@H](c4cn(-c5ccc(F)cc5F)nn4)C/C=C\[C@H]2C)[C@H](O)[C@@H](O)[C@H]3O)C1` [FSA1609052, (4S,5aS,8S,8aR)—N-((1R,3S,7R,8R,9R,10R,11S,12R,Z)-3-(1-(2,4-difluorophenyl)-1H-1,2,3-triazol-4-yl)-10,11,12-trihydroxy-7-methyl-13-oxa-2-thiabicyclo[7.3.1]tridec-5-en-8-yl)-4-isobutyloctahydro-2H-oxepino[2,3-c]pyrrole-8-carboxamide formate salt], the MIC in [1] was 1 mg/L; in assay [2] it was 0.5 mg/L; in assay [3] it was 0.5 mg/L; in assay [4] it was 0.25 mg/L; in [5] it was 0.5 mg/L; in [6], 2 mg/L. Moreover, the MIC in [7] was 0.25 mg/L; in assay [8] it was 0.125 mg/L; in assay [9], 4 mg/L; in assay [10], 0.125 mg/L.
